Test [1] has as its target hPARG (C-terminal His6-tag) (Homo sapiens (Human), UniProt Q86W56). As to the kind of experiment: PARG Enzymatic Activity Assay (HTRF). The settings on record: hPARG 65 pM final, biotinylated-NAD ribosylated PARP1 8 nM final. In kind it is biochemical. The method, boiled down: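 E. coli-expressed enzyme (65 pM final) preincubated 60 min RT with compounds (10-point 4-fold dilution, duplicate) in 50 mM Tris pH 7.4, 3 mM EDTA, 1 mM DTT, 50 mM KCl, 0.01% Tween 20. Biotinylated-NAD ribosylated PARP1 substrate (8 nM final) reacted 10 min RT; Eu-streptavidin/anti-6HIS-XL665 HTRF read 665/620 nm after 60 min. IC50 from 4-parameter Hill fit.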

The subject of the next test is Kuramochi cell line. As to the kind of experiment: Cell Viability Assay (Cell Titer-Glo, 7 days). In kind it is cell-based. The settings on record: 168 h, Kuramochi cells, 7 days incubation, read-out: PARG Cell viability (IC50). The method, boiled down: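 Kuramochi cells in RPMI with 10% FBS, seeded at 400 cells/well, were treated with a 9-point 3-fold dilution series in duplicate for 7 days at 37 °C, 5% CO2. Viability by CellTiter-Glo luminescence, normalised to DMSO and medium-only controls; IC50 from 4-parameter Hill fit.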

Sequence of hPARG (C-terminal His6-tag) (Q86W56 whole entry): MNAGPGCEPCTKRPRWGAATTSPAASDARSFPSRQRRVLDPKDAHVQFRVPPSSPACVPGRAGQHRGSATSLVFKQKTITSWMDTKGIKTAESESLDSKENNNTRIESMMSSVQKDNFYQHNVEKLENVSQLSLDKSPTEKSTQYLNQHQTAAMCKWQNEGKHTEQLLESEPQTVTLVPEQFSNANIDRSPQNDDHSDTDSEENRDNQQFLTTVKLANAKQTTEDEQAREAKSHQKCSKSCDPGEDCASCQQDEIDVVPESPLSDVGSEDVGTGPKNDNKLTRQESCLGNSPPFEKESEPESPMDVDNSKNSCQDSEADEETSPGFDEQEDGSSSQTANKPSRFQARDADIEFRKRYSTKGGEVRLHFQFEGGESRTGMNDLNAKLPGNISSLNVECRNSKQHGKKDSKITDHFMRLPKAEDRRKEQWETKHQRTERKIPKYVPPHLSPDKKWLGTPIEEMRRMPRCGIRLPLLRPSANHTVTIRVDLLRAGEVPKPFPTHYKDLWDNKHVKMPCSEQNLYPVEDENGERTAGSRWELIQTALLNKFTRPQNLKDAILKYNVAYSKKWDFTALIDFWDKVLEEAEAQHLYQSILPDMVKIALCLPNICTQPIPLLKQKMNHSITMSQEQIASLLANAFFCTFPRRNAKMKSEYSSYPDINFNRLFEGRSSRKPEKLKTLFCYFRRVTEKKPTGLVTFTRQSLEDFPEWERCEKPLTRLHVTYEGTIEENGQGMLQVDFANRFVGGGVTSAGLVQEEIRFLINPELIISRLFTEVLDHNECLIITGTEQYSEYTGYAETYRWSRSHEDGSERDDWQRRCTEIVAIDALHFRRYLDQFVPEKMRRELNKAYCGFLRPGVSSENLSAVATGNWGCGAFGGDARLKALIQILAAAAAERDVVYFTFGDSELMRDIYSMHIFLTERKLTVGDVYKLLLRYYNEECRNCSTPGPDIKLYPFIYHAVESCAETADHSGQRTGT

Take `CC(C)(C)[S+]([O-])N1CCN(c2ncnc3c2c2ccc(S(=O)(=O)NC4(C#N)CC4)cc2n3-c2nnc(C(F)F)s2)CC1` (stereo not shown) [Example 70, 4-(4-(Tert-butylsulfinyl)piperazin-1-yl)-N-(1-cyanocyclopropyl)-9-(5-(difluoromethyl)-1,3,4-thiadiazol-2-yl)-9H-pyrimido[4,5-b]indole-7-sulfonamide]: the IC50 (in test [1]; in the test on Kuramochi cell line) was under 100 nM each time.
As for `CO[C@H](C)C(=O)N1CCC(c2ncnc3c2c2ccc(S(=O)(=O)NC4(C#N)CC4)cc2n3-c2nnc(C(F)F)s2)CC1` [Example 109, (R)-N-(1-cyanocyclopropyl)-9-(5-(difluoromethyl)-1,3,4-thiadiazol-2-yl)-4-(1-(2-methoxypropanoyl)piperidin-4-yl)-9H-pyrimido[4,5-b]indole-7-sulfonamide], the IC50 (in test [1]; with Kuramochi cell line) was under 100 nM in each case.
In the case of `CC(C)C(=O)N1CC=C(c2ncnc3c2c2ccc(S(=O)(=O)NC4(C#N)CC4)cc2n3-c2nnc(C(F)F)s2)CC1` [Example 74, N-(1-Cyanocyclopropyl)-9-(5-(difluoromethyl)-1,3,4-thiadiazol-2-yl)-4-(1-isobutyryl-1,2,3,6-tetrahydropyridin-4-yl)-9H-pyrimido[4,5-b]indole-7-sulfonamide], the IC50 (in test [1]; with Kuramochi cell line) was under 100 nM in each case.
As for `N#CC1(NS(=O)(=O)c2ccc3c4c(C5CCN(C(=O)N6CC(O)C6)CC5)ncnc4n(-c4nnc(C(F)F)s4)c3c2)CC1` [Example 138, N-(1-cyanocyclo-propyl)-9-(5-(difluoromethyl)-1,3,4-thiadiazol-2-yl)-4-(1-(3-hydroxy-azetidine-1-carbonyl)piperidin-4-yl)-9H-pyrimido [4,5-b]indole-7-sulfonamide], the results for the IC50 (in test [1]; in the test with Kuramochi cell line) were under 100 nM and 100 to 1000 nM, respectively.
For `N#CC1(NS(=O)(=O)c2ccc3c4c(N5CCC(N6CCCC6)[C@@H](F)C5)ncnc4n(-c4nnc(C(F)F)s4)c3c2)CC1` (stereo partly drawn) [Example 207, N-(1-Cyanocyclopropyl)-9-(5-(difluoromethyl)-1,3,4-thiadiazol-2-yl)-4-((3S)-3-fluoro-4-(pyrrolidin-1-yl)piperidin-1-yl)-9H-pyrimido[4,5-b]indole-7-sulfonamide] the same measures were under 100 nM and under 100 nM.
As for `N#CC1CCN(c2ncnc3c2c2ccc(S(=O)(=O)NC4(C#N)CC4)cc2n3-c2nnc(C(F)F)s2)CC1` [Example 49, N-(1-Cyanocyclopropyl)-4-(4-cyanopiperidin-1-yl)-9-(5-(difluoromethyl)-1,3,4-thiadiazol-2-yl)-9H-pyrimido[4,5-b]indole-7-sulfonamide], the IC50 (in test [1]; in the test with Kuramochi cell line) was under 100 nM each time.
Regarding `CC(C)C(=O)N1C[C@H](C)N(c2ncnc3c2c2ccc(S(=O)(=O)NC4(C#N)CC4)cc2n3-c2nnc(C(F)F)s2)C[C@H]1C` [Example 38, N-(1-Cyanocyclopropyl)-9-(5-(difluoromethyl)-1,3,4-thiadiazol-2-yl)-4-((2S,5R)-4-isobutyryl-2,5-dimethylpiperazin-1-yl)-9H-pyrimido[4,5-b]indole-7-sulfonamide], the IC50 in test [1] is under 100 nM; in the test with Kuramochi cell line, 100 to 1000 nM.
On the same counts, the results for `CC(C)[S+]([O-])N1CCN(c2ncnc3c2c2ccc(S(=O)(=O)NC4(C#N)CC4)cc2n3-c2nnc(C(F)F)s2)CC1` (stereo not shown) [Example 69, N-(1-Cyanocyclopropyl)-9-(5-(difluoromethyl)-1,3,4-thiadiazol-2-yl)-4-(4-(isopropylsulfinyl)piperazin-1-yl)-9H-pyrimido[4,5-b]indole-7-sulfonamide] are under 100 nM and under 100 nM.
On the same counts, the results for `CN1CCN(c2ccnc3c2c2ccc(S(=O)(=O)NC4(C#N)CC4)cc2n3-c2nnc(C(F)F)s2)CC1` [Example 198, N-(1-Cyanocyclopropyl)-9-(5-(difluoromethyl)-1,3,4-thiadiazol-2-yl)-4-(4-methylpiperazin-1-yl)-9H-pyrido[2,3-b]indole-7-sulfonamide] are under 100 nM and under 100 nM.
For `C[C@@H]1CN(C(=O)N(C)C)[C@@H](C)CN1c1ncnc2c1c1ccc(S(=O)(=O)NC3(C#N)CC3)cc1n2-c1nnc(C(F)F)s1` [Example 59, (2S,5R)-4-(7-(N-(1-Cyanocyclopropyl)sulfamoyl)-9-(5-(difluoromethyl)-1,3,4-thiadiazol-2-yl)-9H-pyrimido[4,5-b]indol-4-yl)-N,N,2,5-tetramethylpiperazine-1-carboxamide] the same measures were under 100 nM and under 100 nM.
For the compound `CC(C)C(=O)N1CCC(c2ccnc3c2c2ccc(S(=O)(=O)NC4(C#N)CC4)cc2n3-c2nnc(C(F)F)s2)CC1` [Example 197, N-(1-Cyanocyclopropyl)-9-(5-(difluoromethyl)-1,3,4-thiadiazol-2-yl)-4-(1-isobutyrylpiperidin-4-yl)-9H-pyrido[2,3-b]indole-7-sulfonamide], the IC50 was under 100 nM in test [1] and 100 to 1000 nM in the test with Kuramochi cell line.

The values are drawn from patent US20250388589A1, “TRICYCLIC HETEROCYCLIC DERIVATIVES, COMPOSITIONS AND USES THEREOF” (Danatlas Pharmaceuticals Co., Ltd., priority 2022, published 2025).
